Reference: the NIST ThermoML archive (doi:10.1021/acs.jced.6b00026)
± gives the expanded uncertainty stated by the source.

Details: Liquid, Buoyancy - hydrostatic balance with magnetic suspension - one sinker

CCCCCCCCCCC [undecane]
Details | mass density [kg/m3]
313.17 K, 19009 kPa | 741.21 ± 0.33
313.18 K, 9997 kPa | 734.69 ± 0.33
313.19 K, 12016 kPa | 736.18 ± 0.33
313.19 K, 18013 kPa | 740.5 ± 0.33
313.22 K, 14009 kPa | 737.62 ± 0.33
313.23 K, 16006 kPa | 739.05 ± 0.33
313.24 K, 8029 kPa | 733.14 ± 0.33
323.18 K, 19002 kPa | 734.54 ± 0.33
323.19 K, 16026 kPa | 732.35 ± 0.33
323.19 K, 17995 kPa | 733.8 ± 0.33
323.22 K, 10009 kPa | 727.67 ± 0.33
323.23 K, 12003 kPa | 729.24 ± 0.33
323.23 K, 14022 kPa | 730.8 ± 0.33
323.24 K, 7997 kPa | 726.03 ± 0.33
333.12 K, 16003 kPa | 725.32 ± 0.33
333.12 K, 17990 kPa | 726.87 ± 0.33
333.13 K, 12007 kPa | 722.07 ± 0.33
333.14 K, 8001 kPa | 718.68 ± 0.33
333.14 K, 19027 kPa | 727.66 ± 0.33
333.15 K, 14012 kPa | 723.7 ± 0.33
333.16 K, 10001 kPa | 720.38 ± 0.33
343.25 K, 13005 kPa | 716 ± 0.33
343.25 K, 16996 kPa | 719.36 ± 0.33
343.26 K, 11021 kPa | 714.27 ± 0.33
343.26 K, 14019 kPa | 716.86 ± 0.33
343.27 K, 15997 kPa | 718.51 ± 0.33
343.27 K, 18006 kPa | 720.27 ± 0.33
343.28 K, 11999 kPa | 715.12 ± 0.33
343.28 K, 19019 kPa | 720.98 ± 0.33
343.29 K, 7989 kPa | 711.51 ± 0.33
343.29 K, 9998 kPa | 713.33 ± 0.33
343.3 K, 14998 kPa | 717.66 ± 0.33
353.16 K, 12003 kPa | 708.19 ± 0.33
353.31 K, 11002 kPa | 707.25 ± 0.33
353.31 K, 17012 kPa | 712.63 ± 0.33
353.32 K, 13007 kPa | 709.08 ± 0.33
353.32 K, 14999 kPa | 710.86 ± 0.33
353.32 K, 19024 kPa | 714.35 ± 0.33
353.33 K, 7993 kPa | 704.36 ± 0.33
353.33 K, 14003 kPa | 709.98 ± 0.33
353.33 K, 18010 kPa | 713.48 ± 0.33
353.34 K, 16001 kPa | 711.73 ± 0.33
353.35 K, 9996 kPa | 706.27 ± 0.33
